# Measured values: patent US20190083420A1, “METHODS OF USING (2R, 6R)-HYDROXYN[…] (2S, 6S)-HYDROXYN[…] THE TREATMENT OF DEPRESSION, ANXIETY, ANHEDONIA, FATIGUE, SUICIDAL IDEATION, AND POST TRAUMATIC STRESS DISORDERS” (The Uinited States of America, as represented by the …, priority 2016, published 2019)
# Entries after “also recorded” stand apart in the source; their conditions may differ.
# Test system: male CD-1 mice
# Assay: Learned helplessness (LH)
# Format: in vivo
# Settings: single injection
# Excerpt: Male CD-1 mice (8-10 weeks old, Charles River Laboratories, Mass., USA) were housed in groups of four-five per cage with a constant 12-hour light/dark cycle (lights on/off at 07:00/19:00). Food and water were available ad libitum. Mice acclimatized to the new environment for seven days prior to the start of the experiments. For the whole-cell NMDA current electrophysiological recordings, male Sprague-Dawley rats (housed three per cage; Charles River, Wilmington, Mass.) were used. EPSC recording were done from rats at postnatal day 24-25. All experimental procedures were approved by the University of Maryland, Baltimore Animal Care and Use Committee and were conducted in full accordance with the National Institutes of Health Guide for the Care and Use of Laboratory Animals.
# The LH paradigm consisted of three different phases, i.e., inescapable shock training, LH screening, and the LH test. For the inescapable shock portion of the test (Day 1), the animals were placed in one side of two-chambered shuttle boxes (34 cm height×37 cm width×18 cm depth; Coulbourn Instruments, PA, USA), with the door between the chambers closed. Following a five-min adaptation period, 120 inescapable foot-shocks (0.45 mA, 15 sec duration, randomized average inter-shock interval of 45 sec) were delivered through the grid floor. During the screening session (Day 2), the mice were placed in one of the two chambers of the apparatus for 5 min. A shock (0.45 mA) was then delivered, and the door between the two chambers was raised simultaneously. Crossing over into the second chamber terminated the shock. […] A total of 30 screening trials of escapable shocks were presented to each mouse with an average of 30 sec delay between each trial. Mice that developed helplessness behavior (>5 escape failures during the last 10 screening shocks) were administered with the respective drug 24 hours following screening (Day 3). During the LH test phase (Day 4), the animals were placed in the shuttle boxes and, after a 5-min adaptation period, a 0.45 mA shock was delivered concomitantly with door opening for the first five trials, followed by a 2-sec delay for the next 40 trials. Crossing over to the second chamber terminated the shock. […] A total of 45 trials of escapable shock were presented to each mouse with 30 sec inter-trial intervals. The number of escape failures was recorded for each mouse.
compound,measurement,setting,value
"N[C@@]1(c2ccccc2Cl)CCC[C@@H](O)C1=O [(2R,6R)-HNK, (2R,6R)-2-amino-2-(2-chlorophenyl)-6-hydroxycyclohexanone]",doses with antidepressant-like effects in learned helplessness,,5 to 75 mg/kg
same,antidepressant-like effect in learned helplessness (escape failures),test 24 hours after administration,greater potency and longer-lasting antidepressant-like effects; also recorded: dose-dependent antidepressant-like responses; also recorded: more potent antidepressant effects; also recorded: dose-dependent antidepressant action
